# Entries after “also recorded” stand apart in the source; their conditions may differ.
# What was measured:
# [1] = Singlet oxygen quantum yield by phosphorescence at 1270 nm, thiouracil series; format: physicochemical
# Procedure: Solutions of 4tUra, 2,4dtUra, and the singlet oxygen standard (phenalenone; ΦΔ=0.98) were prepared in acetonitrile, each with an absorbance of 0.3 at 355 nm in a 1×1 cm quartz cuvette. The solutions were purged with oxygen for 30 min, followed by the determination of quantum yields from back-toback measurements of the singlet oxygen phosphorescence intensity at 1270 nm. The O2-saturated solutions were excited at 355 nm (Spectra Physics GCR-150-30: 7 ns pulse width) and the phosphorescence at 1270 nm was detected with a NIR sensitive photomultiplier tube (H10330A-45, Hamamatsu).
# The singlet oxygen (^1O2) quantum yields of 4tUra and 2,4dtUra were measured by monitoring the characteristic phosphorescence of ^1O2 at 1270 nm with nanosecond time resolution.
# [2] = tested on: adenosine 5′-monophosphate (5′-AMP); test: Photoreactivity with adenosine 5′-monophosphate upon 365 nm irradiation in N2-saturated buffer
# Procedure: Aqueous phosphate-buffered saline solutions, pH 7.4, containing either 4tUra or 2,4dtUra were prepared with and without 5′-AMP and loaded into 1×1 cm septum-top quartz cuvettes. The concentrations of the thiouracil derivatives and 5′-AMP were […], respectively. These concentrations were chosen in order to favor the bimolecular photoreaction between the thiouracil derivative and 50-AMP, while simultaneously maintaining the absorbance of the solutions within the linear dynamic range limit of the UV-visible spectrophotometer used. All solutions were purged with ultrapure nitrogen for 30 min and kept under constant nitrogen flow throughout the irradiation period. An optical parametric amplifier (TOPAS, Quantronix/Light Conversion) pumped by our Libra laser system (described above) was used for monochromatic (±1 nm) irradiation of the samples. […] Absorbance changes in the thiouracil solutions, with and without 5′-AMP, were monitored periodically using UV-visible spectroscopy (Cary 100 Bio) during irradiation at 365 nm for up to 90 min and while stored in the dark for up to three and a half days.
# In order to scrutinize the light-induced reactivity of these sensitizers toward biomolecules, aqueous phosphate-buffered saline solutions of either 4tUra or 2,4dtUra were prepared in the presence of the RNA monomer adenosine 5′-monophosphate (5′-AMP) at a 1:5 molar ratio. […] The experimental conditions were chosen in order to facilitate the extraction of relative photoreaction rates from the changes in the steady-state absorption spectra with irradiation time. […]
# [3] = Steady-state molar absorptivity spectra, thiouracil series; format: physicochemical; conditions: 380 to 400 nm; based on molar absorptivity spectra
# Procedure: Steady-state absorption spectra were measured using a Cary 100 Bio spectrometer. All absorption spectra were background corrected by subtracting the absorption of the neat solvent. Molar absorptivity coefficients were determined from the absorption spectra of serial dilutions of stock solutions with known concentrations.
# An important property in the characterization of the photosensitizing potential of the thiouracil series is the determination of their ground-state molar absorptivity spectra. […] The maximum of the lowest-energy absorption band is shifted considerably further to the red (60 nm, 6734 cm^−1) upon sulfur substitution of the oxygen atom at the C4 position compared to when the substitution is made at the C2 position. […] In fact, based on the molar absorptivity spectra, the absorption efficiency of 2,4dtUra at nearvisible wavelengths (380 to 400 nm) is about 27-fold greater than that of 4tUra (see ESI† for details). The ability of these thiouracil derivatives to absorb longer wavelengths of light than uracil facilitates their selective excitation over the canonical DNA and RNA nucleobases. This photophysical property is essential for their prospective use in in vitro and in vivo photosensitizing applications.
# [4] = Estimated photosensitization depth into tissue from molar absorptivity cutoff and penetration depth of light
# From the text: FIG. 13 illustrates a plot showing molar absorptivity spectra of 4tUra and 2,4dtUra overlaid with the function of the wavelength-dependent penetration depth of light into unpigmented tissue. The ε cutoff is defined by the molar absorptivity of 4tUra at 365 nm; the excitation wavelength typically used in its photosensitization applications.
# Importantly, many of the current applications employing 4tUra and other UVA photosensitizers (e.g. psoralen derivatives) use radiation at 365 nm as the excitation source. The use of longer UVA wavelengths reduces direct excitation of other biomolecules, thereby increasing photosensitization efficiency and minimizing unwanted side reactions. However, the requirement of using relatively high concentrations of the sensitizer and/or long irradiation times are two major drawbacks in the current use of 4tUra in photocrosslinking studies as well as in PUVA (psoralen+UVA) photochemotherapies. […] More importantly, 2,4dtUra enables the use of lower-energy excitation wavelengths, as long as 395 nm (see FIG. 13), considering a molar absorptivity cutoff criterion equal to that currently used for 4tUra (see ESI† for a more thorough justification of this cutoff criterion). In other words, the use of 2,4dtUra enables excitation at 395 nm while maintaining the same absorption efficiency and photoreactivity as that of 4tUra at 365 nm. […]
# [5] = cited from earlier work
# [6] = Femtosecond to microsecond transient absorption spectroscopy of the thiouracil series (intersystem crossing, triplet yield, triplet decay, triplet-triplet extinction)
# From the text: Briefly, 800 nm, 100 fs fundamental pulses were generated with a Ti-Sapphire regenerative amplifier laser system (Libra-HE, Coherent, Inc.: 4.0 W, 1 kHz). The fundamental beam was used to produce pump wavelengths of 320, 335, and 350 nm via an optical parametric amplifier (TOPAS, Quantronix/Light Conversion). Unwanted wavelengths were removed from the pump beam using a reflective wavelength filter and a Glan-Taylor polarizer. A fraction of the remaining fundamental beam was focused into a continuously moving CaF2 plate (2 mm thick) to generate broadband white light probe pulses (320-700 nm). The intensity of the excitation beam was attenuated to 1 mJ per pulse at the sample position. The polarization of the pump beam was randomized before being focused into the sample to overlap with the white light continuum probe at a 3:1 beam diameter ratio. Pump-probe experiments were collected using a Helios spectrometer (Ultrafast Systems, LLC) and a home-made data acquisition software (LabView, National Instruments, Inc.).
# Solutions of the 2tUra, 4tUra, and 2,4dtUra derivatives were prepared in aqueous phosphate-buffered saline at pH 7.4. […] Solutions were investigated in 2 mm optical path length quartz cells and the irradiated volume was continuously refreshed by stirring with a Teflon-coated magnetic stir bar. Contributions to the transient data from any putative photoproduct formation were prevented by replacing the solution with fresh stock solution every 5 scans, or before 6% sample degradation (as monitored by a decrease in the steady-state absorbance of the lowest-energy absorption band). The UVA excitation wavelength used was varied depending on the absorption spectrum of the specific thiouracil derivative investigated. For 2tUra, an excitation wavelength of 320 nm was used, whereas 2,4dtUra was excited at 335 and 350 nm, and 4tUra was excited at all three of these UVA wavelengths.
# Decay of the triplet state of 4tUra and 2,4dtUra to the ground state was monitored using the same excitation and detection setups but probing with an electronically triggered broadband white light source (Eos, Ultrafast Systems, LLC) that has been conveniently integrated into the Helios spectrometer. This probe source has a spectral window from B375 to 800 nm, a time resolution of about 400 ps, and a temporal window of up to 120 ms. […] Data were collected with the solutions under a constant nitrogen flow, and exciting at 350 nm with 3 mJ per pulse for 10 min, corresponding to less than 5% degradation.
# For each data set, between 50 and 100 traces were selected across the entire range of probe wavelengths and globally analyzed in Igor Pro 6.32A (WaveMetrics, Inc.). […] 83 The uncertainties reported for the triplet population lifetimes are twice the standard deviation from the average fitting of at least three independent datasets (i.e., recorded on three different days). Triplet-triplet absorption spectra were extracted from the global fitting analysis.
compound,measurement,setting,value
"Sc1ccnc(S)n1 [2,4dtUra, 2,4-dithiouracil]",ΦΔ singlet oxygen quantum yield,"[1]; O2-saturated acetonitrile, 355 nm excitation, phenalenone standard",0.49±0.02
same,1O2 yield relative to uracil,[1]; excited to lowest-energy absorption band,3.3 fold
same,1O2 yield,[1]; following UVA excitation,ca. 50%
same,photoreaction rate with 5′-AMP relative to 4tUra,"[2]; 365 nm, same concentrations of reactants",approximately three times faster; also recorded: threefold greater; also recorded: threefold higher
same,photoreaction rate,"[2]; with 5′-AMP, 1:5 molar ratio (24 and 120 mM), 365 nm irradiation, N2-saturated aqueous buffer pH 7.4",(1.2±0.2)×10^−9 M s^−1
same,absorption efficiency at near-visible wavelengths relative to 4tUra,[3],about 27 fold
same,longest excitation wavelength at molar absorptivity cutoff equal to that of 4tUra at 365 nm,[4],≤ 395 nm
same,pKa,[5],7.4
same,increase in rate of intersystem crossing going from 2tUra,[6],1.6 fold
same,τISC intersystem crossing lifetime,"[6]; aqueous phosphate-buffered saline solution, pH 7.4",220±40 fs
same,κT triplet-state decay rate,"[6]; aqueous phosphate-buffered saline solution, pH 7.4, 24 mM solutions, nitrogen-purged, 350 nm excitation",4.3 ± 0.9 10^6 s^−1
same,intersystem crossing lifetime,"[6]; aqueous phosphate-buffered saline, pH 5.4",210±50 fs
same,triplet-triplet extinction coefficient,"[6]; at 600 nm, singlet depletion method",2500 ± 600 M⁻¹ cm⁻¹
